This is an account of results in article PMC9741109, “Synthesis, In Silico and In Vivo Toxicity Assessment of Functionalized Pyridophenanthridinones via Sequential MW-Assisted Intramolecular Friedel-Crafts Alkylation and Direct C–H Arylation” (Molecules, 2022).

By LC50 is commonly meant the concentration that kills 50% of the test population. The low end stands for greater toxicity, the high end for lower toxicity.

Several values for one entry are separate records, joined by “and”; a condition that tells them apart may be missing. Equal values may be shown once.

One data set is described as follows: in vivo. To be noted: wild-type, zebrafish (Danio rerio), in vivo. An excerpt:
(§1) The Zebrafish (Danio rerio) has been established as a modern experimental vertebrate model for assessing the toxicity of diverse synthetic and natural small molecules (SMs). […] Thus, these previously reported methodologies were adapted in our laboratory with slight modifications for the toxicological assessment of the selected pyridophenanthridin-6-one 4f and its corresponding precursors 6f–8f (Table 2).
(§2) Wild-type adult zebrafish of both sexes were separated in two tanks (30 L each), according to their gender, at 26 ± 2 °C under natural light-dark photoperiods. Fishes were fed twice daily, and the water quality was recorded weekly, in order to acclimate the fishes for at least two weeks before experiments begin. For the reproduction of the adult fishes, small breeding tanks were set up in the evening previous to the experiment, each containing three males and one female specimen. The tanks were isolated until the next morning when the lights switched on and the natural mating occurred, without any perturbation.
(§3) The adult fishes were returned to their corresponding tank and the embryos were collected, pooled, and washed with E3 medium and transferred into a 92 mm glass Petri dish. Further, the dead, delayed, malformed, and unfertilized embryos were identified under a dissecting microscope and removed by select aspiration with a pipette. This last procedure was repeated at 12 and 20 hpf in order to remove the unfit embryos. Throughout this period of time, the embryos were kept at 28 ± 2 °C in an incubator under natural light–dark photoperiods. The selected embryos of 24 hpf from the Petri dish were gently distributed into 96-well plates, placing a single embryo and 200 μL of E3 medium per well.
(§4) For this experiment, in total 72 embryos were required per sample in order to run three independent experiments in three different plates, and each compound was evaluated three times in the same plate, allowing the evaluation of four samples per plate. […] Each embryo was examined under a dissecting microscope and the statistical analysis was made using Regression Probit analysis with SPSS for windows version 19.0. Data are expressed as the standard error of the mean (SEM) of three different experiments in triplicate.

A further data set relates to zebrafish embryos. Put plainly: in vivo. Particulars: toxicity scale class from zebrafish LC50 in mg/L.
Excerpt: as §1, §2, §3, §4

The mark [1] stands for this setting: LC50, zebrafish embryos, Figure 5 toxicity scale.
Where [2] appears, read: Zebrafish LC50, zebrafish embryos, 96 hpf, 72 h exposure, mean ± SEM.

For the compound `CCc1cc2c3c(c1)C(c1ccccc1)CC(=O)N3Cc1ccccc1-2` (stereo not shown) [4f], the 50% lethal concentration (LC50) in the data set “in vivo” (setting [1]) was 67.8 µM; in “in vivo” (setting [2]), 67.8 µM and 60.2 µg/mL. Besides, the “Aquatic Animal Acute Toxicity” value with zebrafish embryos is “ST (slightly toxic 10–100 (ST))”.
Consider `CCc1ccc2c(c1)C(c1ccccc1)CC(=O)N2Cc1ccccc1Br` (stereo not shown) [6f], for which the LC50 in “in vivo” (setting [2]) was 151 µM and 86.5 µg/mL. The “Aquatic Animal Acute Toxicity” value with zebrafish embryos is “ST (slightly toxic 10–100 (ST))”.
For the compound `CCc1ccc(N(Cc2ccccc2Br)C(=O)/C=C/c2ccccc2)cc1` [7f], the LC50 in “in vivo” (setting [1]) was 137 µM; in “in vivo” (setting [2]) it was 137 µM and 51.2 µg/mL. The “Aquatic Animal Acute Toxicity” value in the data set on zebrafish embryos is on record as “ST (slightly toxic 10–100 (ST))”.
Take `CCc1ccc(NC(=O)/C=C/c2ccccc2)cc1` [8f]: in the data set “in vivo” (setting [2]), the LC50 was 221 µM and 43.9 µg/mL. Also, the “Aquatic Animal Acute Toxicity” value in the data set on zebrafish embryos was “ST (slightly toxic 10–100 (ST))”.
As to `COc1ccc(O)cc1C(C)(C)C` [BHA 18, butylated hydroxyanisole], the LC50 in “in vivo” (setting [1]) was determined as 90.2 µM; in “in vivo” (setting [2]) it was 90.2 ± 1.15 µM. The “Aquatic Animal Acute Toxicity” value in the data set with zebrafish embryos is “ST (slightly toxic 10–100 (ST))”.
Regarding `CC[C@@]1(O)C(=O)OCc2c1cc1n(c2=O)Cc2cc3ccccc3nc2-1` [Camptothecin 13, camptothecin], the 50% lethal concentration (LC50) at 72 h is 0.0038 µM in the data set “in vivo” (setting [1]) and 0.00384 ± 0.00021 µM in “in vivo” (Zebrafish LC50, zebrafish embryos, 96 hpf, 72 h exposure, mean ± SEM, footnote c). The “Aquatic Animal Acute Toxicity” value in the data set with zebrafish embryos is recorded as “T (super toxic 0–0.1 (T))”.
In the case of `C=CCc1ccc(O)c(OC)c1` [Eugenol 19, eugenol], the LC50 in “in vivo” (setting [1]) is 114 µM; in the data set “in vivo” (setting [2]) it was 114 µM and 18.7 µg/mL. Besides, in the data set on zebrafish embryos, the “Aquatic Animal Acute Toxicity” value is listed as “ST (slightly toxic 10–100 (ST))”.
Regarding `CC(C)Cn1cnc2c(N)nc3ccccc3c21` [Imiquimod 14, imiquimod], the LC50 at 72 h is 351 µM in “in vivo” (setting [1]); 351 µM and 84.3 µg/mL in the data set “in vivo” (setting [2]). Besides, the “Aquatic Animal Acute Toxicity” value in the data set on zebrafish embryos is recorded as “ST (slightly toxic 10–100 (ST))”.
Turning to `CCCCCCCCCCC[C@@H](C[C@@H]1OC(=O)[C@H]1CCCCCC)OC(=O)[C@H](CC(C)C)NC=O` [Orlistat 15, orlistat], the 50% lethal concentration (LC50) in “in vivo” (setting [1]) is 86 µM; in “in vivo” (setting [2]), 87 µM and 43.1 µg/mL. Besides, in the data set with zebrafish embryos, the “Aquatic Animal Acute Toxicity” value was “ST (slightly toxic 10–100 (ST))”.
